# Laboratory results taken from US8865641B2, “Methods of treatment of fatty liver disease by pharmacological activation of cholinergic pathways” (priority 2011, dated 2014).
# Columns and labels:
# Assay type in all cases: in vivo, C57BL/6J mice
# [1] = system: mice with high-fat diet-induced obesity; assay: Insulin sensitivity test (IST) in high-fat diet-fed mice
# Experimental: (§1) Separate groups of mice were fed and treated and body weights and food intake recorded as described above (in Experimental design). At the end of the 12 week period, mice from the three experimental groups were used in the insulin sensitivity and glucose tolerance tests. In the insulin sensitivity test, after an overnight (18 hours) fast, mice (n=10 per group) were weighed and administered i.p. with insulin (Humulin R, Lilly, 0.5 units/kg). In the glucose tolerance test, after an overnight (21 hours) fast, mice (n=10 per group) were weighed and injected i.p. with glucose (10% D glucose solution, Sigma, 1 g/kg). Glucose levels were determined at 0, 15, 30, 60, and 120 min after insulin or glucose administration in blood from the tail vein by using the Contour blood glucose meter (Bayer, Elkhart, Ind.) with Contour blood glucose test strips.
# [2] = system: mice with high-fat diet-induced obesity; assay: Body weight, food intake and abdominal adiposity in high-fat diet-fed mice; conditions: for body weight: 4 mg/kg i.p. once daily, FIG. 3A
# Experimental: (§2) Experiments with male C57BL/6J mice (5-6 month old, Jackson Lab) were performed in accordance with the NIH Guidelines under protocols approved by the IACUC Committee of the Feinstein Institute for Medical Research, North Shore-LIJ Health System, Manhasset, N.Y., USA.
# (§3) C57BL/6J mice were initially fed a regular chow for 10 days and then switched to a high-fat diet (D12492, 60% kcal from fat, shown in FIG. 2) or its corresponding low-fat control diet (D12450B, 10% kcal from fat, shown in FIG. 1) (Research Diets, New Brunswick, N.J.) for 12 weeks. After the first 8 weeks mice on the high-fat diet were divided into 2 groups and treated with saline (i.p. once daily) or galantamine (Galanthamine Hydrobromide, EMD Biosciences, Inc., La Jolla, Calif., USA) (4 mg/kg, i.p., once daily) for the remaining 4 weeks of the study. In parallel, mice on the low-fat (control) diet were treated with saline. Body weight and food intake were determined on a weekly basis by trained personnel of the Center for Comparative Physiology at the Feinstein Institute, who were blinded to treatment groups. At the end of the experimental time period mice were euthanized and abdominal adiposity, liver weight, cytokine and adipokine levels, metabolic profile, insulin resistance, and liver histology were evaluated. In a separate experiment, groups of mice were fed and treated and body weights and food intake recorded as described above. At the end of the experimental time period mice were subjected to the insulin sensitivity test or the glucose tolerance test as described below.
# (§4) After an overnight fast and following body weight and blood glucose determination mice were euthanized by CO2 asphyxiation. Heparinized blood was obtained by cardiac puncture and centrifuged within 30 min at 5,000 rpm for 10 min. Visceral adipose tissues and liver were harvested, rinsed with saline, and weighed. One piece of liver (the biggest lobe) was fixed in formalin for further H&E staining. Plasma and visceral fats (were frozen on dry ice) were transferred at −20° C. prior to further manipulations.
# [3] = system: mice with high-fat diet-induced obesity; assay: Fasting blood glucose, plasma insulin, HOMA-IR and plasma total cholesterol in high-fat diet-fed mice; conditions: 4 mg/kg i.p. once daily for 4 weeks, HFD-G vs HFD-S mice
# Experimental: as §3
# Blood glucose during the study was measured by nicking the tails and using the Contour blood glucose meter (Bayer, Elkhart, Ind.) with Contour blood glucose test strips according to the manufacturer's recommendations. After blood collection the cuts were compressed with sterile gauze until bleeding termination.
# (§5) Plasma samples were sent to Millipore and plasma insulin, leptin, MCP-1, PAI-1, resistin, TNF and IL-6 levels were determined by using the Millipore's MILLIPLEX map mouse adipokine panel assay with the following detection sensitivity limits: leptin 16.71 pg/mL; resistin 1.79 pg/mL; IL-6 1.89 pg/mL; TNF 4.39 pg/mL; MCP-1 14.4 pg/mL; PAI-1 16.4 pg/mL, insulin 42.2 pg/mL. Plasma samples were sent to IDEXX and plasma levels of total cholesterol and ALT were determined by using IDEXX's Olympus analyzers and spectrophotometric determination. Plasma adiponectin was measured by using the mouse adiponectin/Acrp30 immunoassay (R&D Systems) according to the manufacturer's recommendations.
# Insulin resistance was evaluated by using glucose and insulin level values and by applying the homeostatic model assessment-insulin resistance (HOMA-IR) formula, presented in Mlinar et al. (2007) Molecular mechanisms of insulin resistance and associated diseases. Clin Chim Acta 375:20-35, the relevant teachings of which is incorporated herein by reference. Specifically, the expression used to evaluate insulin resistance is: HOMA index=insulin (mU/L)×[glucose (mmol/L)/22.5] […]
# [4] = system: mice with high-fat diet-induced obesity; assay: Fatty liver manifestations (plasma ALT, liver weight, hepatic steatosis on H&E liver sections) in high-fat diet-fed mice; conditions: 4 mg/kg i.p. once daily for 4 weeks
# Experimental: as §2
# as §3, with “At the end of the experimental time period mice were subjected to the insulin sensitivity test or the glucose tolerance test as described below.” left out
# as §5
# Formalin fixed liver tissue was imbedded in paraffin, sliced and then liver tissue sections were subjected to hematoxylin and eosin (H&E) staining and microscopic slides prepared. Hepatic steatosis was determined by microscopic evaluation of H&E stained liver sections for lipid accumulation by using Zeiss apotome and semi-quantified by applying a previously implemented grading criteria: no fat accumulation (grade 0); less than 33% fat-containing hepatocytes (grade 1); less than 66% fat-containing hepatocytes (grade 2); more than 66% fat-containing hepatocytes (grade 3).
# [5] = system: mice with high-fat diet-induced obesity; assay: Separate experiment: body weight and food intake in high-fat diet-fed mice before IST and GTT; conditions: 4 mg/kg i.p. once daily for 4 weeks
# Experimental: as §3, with “At the end of the experimental time period mice were subjected to the insulin sensitivity test or the glucose tolerance test as described below.” left out
# Separate groups of mice were fed and treated and body weights and food intake recorded as described above (in Experimental design). […]
# [6] = system: mice with high-fat diet-induced obesity; assay: Plasma cytokine/adipokine levels in high-fat diet-fed mice (MILLIPLEX mouse adipokine panel; adiponectin immunoassay); conditions: 4 mg/kg i.p. once daily for 4 weeks
# Experimental: as §3, §4, §5
# [7] = system: mice with high-fat diet-induced obesity; assay: Glucose tolerance test (GTT) in high-fat diet-fed mice; conditions: HFD-G as compared to HFD-S mice
# Experimental: as §1
# [8] = 4 mg/kg i.p. once daily for 4 weeks, HFD-G group, Table 1 in FIG. 4
smiles,measurement,setting,value
COc1ccc2c3c1O[C@H]1C[C@@H](O)C=C[C@@]31CCN(C)C2 [galantamine],blood glucose levels in IST at 15 min and 30 min,"[1]; HFD-G as compared to HFD-S mice, insulin 0.5 units/kg i.p. after overnight fast",significantly lower
same,blood glucose levels in IST at 120 min,"[1]; HFD-G as compared to LFD-S mice, insulin 0.5 units/kg i.p. after overnight fast",significantly lower
same,time of lowest blood glucose levels in IST,"[1]; HFD-G mice after insulin 0.5 units/kg i.p., unchanged at 60 min, increased at 120 min, FIG. 12",30 min
same,mesenteric adipose tissue weight,[2]; [8],significantly reduced
same,retroperitoneal/perirenal adipose tissue weight,[2]; [8],significantly reduced
same,food intake,"[2]; 4 mg/kg i.p. once daily for 4 weeks, HFD-G vs HFD-S group during treatment, FIG. 3B",additional suppression of food intake
same,body weight,"[2]; HFD-G mice at week 9 as compared to week 8, then sustained",lower after the first week of treatment
same,body weight,[2]; HFD-G vs HFD-S mice at weeks 11 and 12,lower than the weight of HFD-S mice
same,fasting blood glucose levels,[3]; FIG. 6A,significantly reduced
same,plasma insulin levels,[3]; FIG. 6B,significantly reduced
same,plasma total cholesterol levels,[3]; FIG. 6D,significantly decreased
same,insulin resistance (HOMA-IR),"[3]; calculated from glucose and insulin, FIG. 6C",reversed this insulin resistance
same,"hepatocyte fat accumulation (steatosis), microscopic observations","[4]; HFD-G mice, H&E liver sections, FIG. 9",decreased lipid accumulation
same,liver weight,"[4]; HFD-G vs HFD-S mice, FIG. 7B",significant liver weight decrease
same,plasma alanine aminotransferase (ALT) levels,"[4]; HFD-G vs HFD-S mice, end of 12 week study, FIG. 7A",significantly decreased
same,"lipid accumulation in livers, semi-quantitative analysis","[4]; HFD-G vs HFD-S mice, steatosis grade 0-3, FIG. 10",significantly reduced
same,body weight,"[5]; HFD-G mice, while HFD-S continued to increase, FIG. 11A",decreased
same,food intake,"[5]; HFD-G vs HFD-S group, FIG. 11B",significantly lower
same,plasma TNF levels,"[6]; HFD-G group, no value above the assay sensitivity limit",< 4.39 pg/mL
same,plasma MCP-1 levels,"[6]; HFD-G mice, FIG. 5C",significantly reduced
same,plasma IL-6 levels,"[6]; HFD-G vs HFD-S mice, FIG. 5A",significantly reduced
same,plasma leptin levels,"[6]; HFD-G vs HFD-S mice, FIG. 5B",significantly reduced
same,plasma resistin levels,"[6]; HFD-G vs HFD-S mice, FIG. 5D",significantly lowered
same,plasma adiponectin levels,"[6]; HFD-G vs HFD-S mice, FIG. 5F",a certain increase
same,plasma plasminogen activator inhibitor-1 (PAI-1) levels,"[6]; HFD-S higher than LFD-S and HFD-G mice, FIG. 5E",none of these differences were statistically significant
same,area under the curve of the GTT data,[7]; FIG. 13B,significantly lower
same,blood glucose levels in GTT,"[7]; glucose 1 g/kg i.p. after overnight fast, FIG. 13A",suppressed blood glucose levels
